Legend:
[1] = test system: Soybeans (Glycine max); test: Seed application on soybeans in pouch, plant growth effects (shoot length, root system); assay type: in vivo; details: 14 days, additional growth vs blank formulation check
Procedure: The formulated test compounds were added to a defined amount of water. This solution was applied into a pouch which was previously equipped with a filter paper. After the application soybean seeds were sown into the upper fault of the filter paper. The prepared pouches were then incubated for 14 days at 25° C. and a relative humidity of 65% with a photo period of 16 h. The evaluation was made by assessing the shoot length and the root system. Data represent the average of 10 replicates (1seed/plant per pouch).

[2] = test system: French beans (Phaseolus vulgaris); test: Soil application to French beans, effects on flowering (BBCH) and plant physiology (NDVI, NIR); assay type: in vivo; design: NIR (Near infrared band reflectance): unit not given here; details: 0.01 mg AI per plant drench, mean of 4 reps; for BBCH (plant growth stage): 15DAA, check 57; for NDVI (Normalized difference vegetative index) / NIR (Near infrared band reflectance): 25DAA; for NDVI (Normalized difference vegetative index): check 0.431; for NIR (Near infrared band reflectance): check 4.32
Procedure: Four two week old French bean plants were treated with 0.01 mg Al per plant as soil application (drench). Plants were kept under glasshouse conditions at 22° C. with a photo-period of 14 h. 15DAA the development stage of blossoms was assessed. 25DAA the photosynthetic capacity of plants (NDVI, NIR) was measured.

Structure (SMILES)	melting point	Mean shoot height increase (%) ([1]; AI concentration 5 ppm)	Mean shoot height increase in cm ([1]; AI concentration 5 ppm)	other results
CCOC(=O)OC1=C(c2cc(C)ccc2C)C(=O)N(C)C12CCN(OC)CC2 [Compound P1.1]	96 to 110 °C			
CCOC(=O)OC1=C(c2c(C)cc(C)cc2C)C(=O)N(C)C12CCN(OC)CC2 [Compound P1.2, Carbonic acid ethyl ester 8-methoxy-1-methyl-2-oxo-3-(2,4,6-trimethyl-phenyl)-1,8-diaza-spiro[4.5]dec-3-en-4-yl ester]		8.5%	1.7 cm	
CCOC(=O)OC1=C(c2c(C)cc(C)cc2C)C(=O)N(CC)C12CCN(OC)CC2 [Compound P1.8]	101 to 103 °C			
CCOC(=O)OC1=C(c2c(C)cc(Br)cc2C)C(=O)N(C)C12CCN(OC)CC2 [Compound P1.12]		16.0%	3.8 cm	
CCOC(=O)OC1=C(c2cc(C)c(C)cc2Br)C(=O)N(C)C12CCN(OC)CC2 [Compound P1.20]	158 to 159 °C			
CCOC(=O)OC1=C(c2c(C)ccc(C)c2C)C(=O)N(C)C12CCN(OC)CC2 [Compound P1.21]		24.5%	5.8 cm	
CCOC(=O)OC1=C(c2cc(C)c(C)cc2Cl)C(=O)N(C)C12CCN(OC)CC2 [Compound P1.22]	149 to 150 °C			
COCON1C(=O)C(c2cc(C)ccc2C)=C(OC(=O)CC(C)(C)C)C12CCN(OC)CC2 [Compound P1ii.5]	93 to 95 °C			
CCOC(=O)OC1=C(c2c(C)cc(C)cc2C)C(=O)N(OCC)C12CCN(OC)CC2 [Compound P1ii.15]		38.9%	3.8 cm	
COCON1C(=O)C(c2cc(C)ccc2C)=C(OC)C12CCN(OC)CC2 [Compound P1ii.31]	91 to 93 °C			
CCOC(=O)OC1=C(c2cc(C)c(C)cc2C)C(=O)N(OCOC)C12CCN(OC)CC2 [Compound P1ii.56]		7.2%	1.7 cm	
CCOC(=O)OC1=C(c2cc(C)c(C)cc2C)C(=O)N(OC)C12CCN(OC)CC2 [Compound P1ii.57]		10.2%	2.4 cm	
CCOC(=O)OC1=C(c2c(F)ccc(C)c2Cl)C(=O)N(OCOC)C12CCN(OC)CC2 [Compound P1ii.61]	116 to 119 °C			
CCOC(=O)OC1=C(c2c(C)cc(Cl)cc2C)C(=O)N(OC)C12CCN(OC)CC2 [Compound P1ii.114]	122 to 125 °C			
CON1CCC2(CC1)C(O)=C(c1cc(C)ccc1C)C(=O)N2C [Compound P2.1]	121 to 123 °C			
CON1CCC2(CC1)C(O)=C(c1c(C)cc(C)cc1C)C(=O)N2C [Compound P2.2, 4-hydroxy-8-methoxy-1-methyl-3-(2,4,6-trimethyl-phenyl)-1,8-diaza-spiro[4.5]dec-3-en-2-one]				Mean shoot height increase (%) ([1]; AI concentration 4 ppm): 7.2%; Mean shoot height increase in cm ([1]; AI concentration 4 ppm): 1.4 cm
CON1CCC2(CC1)C(O)=C(c1c(C)cc(C)cc1C)C(=O)N2CC1CC1 [Compound P2.8, 1-Cyclopropylmethyl-4-hydroxy-8-methoxy-3-(2,4,6-trimethyl-phenyl)-1,8-diaza-spiro[4.5]dec-3-en-2-one]	223 to 225 °C			
CCN1C(=O)C(c2c(C)cc(C)cc2C)=C(O)C12CCN(OC)CC2 [Compound P2.11]	218 to 221 °C			
CON1CCC2(CC1)C(O)=C(c1cc(C)c(C)cc1Br)C(=O)N2C [Compound P2.23]	191 to 193 °C			
CON1CCC2(CC1)C(O)=C(c1cc(C)c(C)cc1C)C(=O)N2C [Compound P2.25]	183 to 186 °C			
CON1CCC2(CC1)C(O)=C(c1cc(C)c(C)cc1Cl)C(=O)N2C [Compound P2.26, 3-(2-Chloro-4,5-dimethyl-phenyl)-4-hydroxy-8-methoxy-1-methyl-1,8-diaza-spiro[4.5]dec-3-en-2-one]	191 to 192 °C			
CON1CCC2(CC1)C(O)=C(c1cc(Br)c(C)cc1C)C(=O)N2C [Compound P2.28]	182 to 183 °C			
COCON1C(=O)C(c2c(C)cc(-c3ccc(Cl)cc3)cc2C)=C(O)C12CCN(OC)CC2 [Compound P2ii.15, 3-(4′-Chloro-3,5-dimethyl-biphenyl-4-yl)-4-hydroxy-8-methoxy-1-methoxymethoxy-1,8-diaza-spiro[4.5]dec-3-en-2-one]	128 °C (dec.)			

Structure (SMILES)	melting point	Mean shoot height increase (%) ([1]; AI concentration 5 ppm)	Mean shoot height increase in cm ([1]; AI concentration 5 ppm)	other results
CON1CCC2(CC1)C(O)=C(c1c(C)cc(C)cc1C)C(=O)N2OCCOC1CCCCO1 (centres unmarked) [Compound P2ii.22]	135 to 137 °C			
COCON1C(=O)C(c2c(F)ccc(C)c2Cl)=C(O)C12CCN(OC)CC2 [Compound P2ii.60]	155 to 158 °C			
COCCON1C(=O)C(c2cc(Br)c(C)cc2C)=C(O)C12CCN(OC)CC2 [Compound P2ii.73]	63 to 64 °C			
CON1CCC2(CC1)C(O)=C(c1cc(Br)c(C)cc1C)C(=O)N2OC [Compound P2ii.75]	86 to 87 °C			
COCCON1C(=O)C(c2cc(Br)c(F)cc2C)=C(O)C12CCN(OC)CC2 [Compound P2ii.87]	71 to 74 °C			
COCON1C(=O)C(c2cc(Br)c(F)cc2C)=C(O)C12CCN(OC)CC2 [Compound P2ii.89]	64 to 67 °C			
CON1CCC2(CC1)C(O)=C(c1c(C)cc(C)cc1C)C(=O)N2OCC1CCCCC1 [Compound P2ii.96]	169 to 172 °C			
COCCON1C(=O)C(c2c(C)cc(Cl)cc2C)=C(O)C12CCN(OC)CC2 [Compound P2ii.101]	161 to 164 °C			
CON1CCC2(CC1)C(O)=C(c1c(C)cc(Cl)cc1C)C(=O)N2OC [Compound P2ii.102]	88 to 92 °C			
COCON1C(=O)C(c2c(C)cc(Cl)cc2C)=C(O)C12CCN(OC)CC2 [Compound P2ii.104]	176 to 178 °C			
CON1CCC2(CC1)C(O)=C(c1c(C)cc(Cl)cc1C)C(=O)N2OC1CCCO1 (centres unmarked) [Compound P2ii.105]	137 to 139 °C			
CON1CCC2(CC1)C(O)=C(c1c(C)cc(C)cc1C)C(=O)N2C [Compound T1.070]				BBCH (plant growth stage) [2]: 59; NDVI (Normalized difference vegetative index) [2]: 0.418; NIR (Near infrared band reflectance) [2]: 3.81
CON1CCC2(CC1)NC(=O)C(c1cc(C)ccc1C)=C2O [Compound T1iii.030]				BBCH (plant growth stage) [2]: 58; NDVI (Normalized difference vegetative index) [2]: 0.486; NIR (Near infrared band reflectance) [2]: 4.98
CON1CCC2(CC1)NC(=O)C(c1c(C)cc(C)cc1C)=C2O [Compound T1iii.70]				BBCH (plant growth stage) [2]: 58; NDVI (Normalized difference vegetative index) [2]: 0.443; NIR (Near infrared band reflectance) [2]: 4.92
C=CCOC(=O)OC1=C(c2c(C)cc(C)cc2C)C(=O)N(C)C12CCN(OC)CC2 [T1.070, wherein G is COOCH2CH═CH2]		10.2%	2.1 cm	
CCOC(=O)OC1=C(c2c(C)cc(Br)cc2CC)C(=O)N(C)C12CCN(OC)CC2 [T1.078, wherein G is COOCH2CH3]		8.1%	1.7 cm	
CCOC(=O)OC1=C(c2c(C)cc(Cl)cc2OC)C(=O)N(C)C12CCN(OC)CC2 [T1.096, wherein G is COOCH2CH3]		6.6%	1.4 cm	
CCOC(=O)OC1=C(c2c(C)cc(Cl)cc2C)C(=O)NC12CCN(OC)CC2 [T1iii.067, wherein G is COOCH2CH3]		15.5%	3.9 cm	
CCOC(=O)OC1=C(c2c(C)cc(C)cc2CC)C(=O)NC12CCN(OC)CC2 [T1iii.071, wherein G is COOCH2CH3]		8.6%	1.8 cm	
CCOC(=O)OC1=C(c2c(C)cc(C)cc2OC)C(=O)NC12CCN(OC)CC2 [T1iii.072, wherein G is COOCH2CH3]		8.9%	2.1 cm	
CCOC(=O)OC1=C(c2c(C)cc(Cl)cc2OC)C(=O)NC12CCN(OC)CC2 [T1iii.096, wherein G is COOCH2CH3]		18.4%	3.8 cm	
CCOC(=O)OC1=C(c2c(C)cc(C)cc2OC)C(=O)N(OCC)C12CCN(OC)CC2 [T3ii.072, wherein G is COOCH2CH3]		10.6%	2.2 cm	
CCOC(=O)OC1=C(c2c(C)cc(Br)cc2CC)C(=O)N(OC2CCCO2)C12CCN(OC)CC2 (centres unmarked) [T25N.078, wherein G is COOCH2CH3]		14.5%	3.0 cm	
